Source: US9499509B2, “Dihydrochalcone derivatives and their use as antibiotic agents” (UNIVERSITÉ DU QUÉBEC À CHICOUTIMI, priority 2012, dated 2016)
Read-outs that look alike come from different tables or passages of the source.

Assays:
[1] = test system: Streptococcus pneumoniae; experiment: Antibiotic assay (resazurin, Example 1), Streptococcus pneumoniae; type: cell-based; conditions: for IC50: read-out: IC50
Protocol: (§1) Bacteria Strain. […] The MRSA were obtained as further described below.
(§2) Antibiotic agents. Cyprofloxacin and erythromycin were provided by Sigma-Aldrich. Gentamicin sulfate and vancomycin hydrochloride were provided by Calbiochem.
(§3) Five additional strains were tested: Streptococcus pneumoniae, Streptococcus agalactiae, Streptococcus pyogenes, Enterococcus faecalis and Corynebacterium jeikeium.

[2] = test system: Streptococcus pyogenes; experiment: Antibiotic assay (resazurin, Example 1), Streptococcus pyogenes; type: cell-based; conditions: for IC50: read-out: IC50
Protocol: as §1, §2, §3

[3] = test system: Streptococcus agalactiae; experiment: Antibiotic assay (resazurin, Example 1), Streptococcus agalactiae; type: cell-based; conditions: for IC50: read-out: IC50
Protocol: as §1, §2, §3

[4] = test system: methicillin-resistant Staphylococcus aureus (MRSA) strains; experiment: Antibiotic assay (resazurin, Example 1), MRSA strains; type: cell-based; conditions: for IC50: read-out: IC50
Description: as §1, §2
Isolation and identification of methicillin-resistant Staphylococcus aureus (MRSA) strains. From March 2007 to March 2008, 35 screening swabs from nares (n=31), throat (n=3), Groin pus (n=1) were obtained from patients hospitalized at Chicoutimi hospital. Identification of S. aureus was performed using the Slidex Staph-Kit (bioMerieux Vitek, Inc., Hazelwood, Mo.) according to the manufacturer's instructions. Quality control was performed with MRSA strain ATCC 43300 and S. aureus strain ATCC 25923. In addition, S. aureus profile was determined with API Staph test strip with bacterial suspension of saline McFarland of 0.5 (bioMerieux, Durham, N.C.) according to the manufacturer's protocol. API Staph strips were held for 24 h before the results were read. A latex agglutination (SLIDEX) test detecting methicilin resistance in Staphylococci based on the production of low-affinity PBP2a, which is encoded by the mecA gene was performed on all strains. An antibiogram was also performed to confirm the identification of MRSA strains using disk diffusion test.
Antibiotic susceptibility testing using disk diffusion method. The antimicrobial activity of different classes of antibiotics of the potential MRSA was determined by diffusion method (Kirby-Bauer) as described by NCCLS. The antibiotics tested included: penicillin (10 units), amoxicillin/clavulanic acid (20/10 μg), ciprofloxacin (5 μg), moxifloxacin (5 μg), levofloxacin (5 μg), clindamycin (15 μg), erythromycin (15 μg), cefoxitin (30 μg), linezolid (30 μg), trimethoprim/sulfomethoxazole (1.25/23.75 μg), rifampicin (5 μg), gentamicin (10 μg) and vancomycin (30 μg). The agar medium had pH 7.2 to 7.4 before inoculing potentiel MRSA. The antibiotics were maintained at 8° C. or lower −14° C. according to manufacturer's recommendations. The pure culture was inoculated on a non-selective plate for 18-24 h. Each colony was collected with a wire loop and transfered the growth to a tube containing 4 to 5 mL of a tryptic-soy broth. The inoculum density was standarized with BaSO4 using 0.5 McFarland standard. All strains were incubated at 37° C. until it achieves or exceeds the turbidity of 0.5 McFarland standard. Inoculation of the dried surface (Muller-Hinton agar plate) by streaking the swab over the entire sterile agar surface. This procedure was repeated two more times. After 15 min, the appropriate disk were applied on the surface with a sterile forceps. The inverted plates was placed in a incubator at 37° C./air/16 to 18 h or 24 h for vancomycin. The inhibition zones were measured with a millimetric ruler. Interpretation of zone sizes by references of the manufacturer. Quality control organisms used were ATCC strains number 25923.
(§4) MRSA. Ten (10) strains of MRSA obtained as described above were tested along with an S. aureus wild type (WT) strain (ATCC25923).

[5] = test system: Corynebacterium jeikeium; experiment: Antibiotic assay (resazurin, Example 1), Corynebacterium jeikeium; type: cell-based; conditions: Coryne. jeikeium 14139
Protocol: as §1, §2, §3

[6] = test system: WS-1 cell lines; experiment: Cytotoxicity assay on WS-1 (Example 1); conditions: Table 5; WS-1, 48 h
Protocol: Cytotoxicity assay. The cytotoxicity assay was performed in 96-well plates (BD Falcon). The WS-1 cell lines were provided by ATCC. The WS-1 was cultured in DMEM+10% fetal calf serum. The cells were plated in a volume of 100 μL at a density of 5000 cells per well and incubated at 37° C.+5% CO2 for 24 h to promote cell adhesion.
The plates were incubated at 37° C.+5% CO2 for 48 h. The cells were then washed with 100 μL of HBSS and 150 μL of a 2% resazurin were added to the wells.
The therapeutic index is the ratio between the toxicity on normal cells, in this case fibroblast, and the toxicity on bacteria.

[7] = test system: S. aureus wild type strain (ATCC 25923); experiment: Antibiotic assay (resazurin, Example 1), S. aureus wild type; type: cell-based, Staphylococcus aureus
Protocol: as §1, §2, §4

[8] = test system: Enterococcus faecalis; experiment: Antibiotic assay (resazurin, Example 1), Enterococcus faecalis; type: cell-based; conditions: for IC50: read-out: IC50
Protocol: as §1, §2, §3

[9] = test system: S. epidermidis; experiment: Antibiotic assay (resazurin, Example 1), S. epidermidis strains
Protocol: The antibiotic assays were performed in 96-well plates (BD Falcon). The bacteria strains were inoculated in Nutrient Broth (BD) for the gram negative bacteria and Tryptic soy broth (BD) with 10% of defibrinated sheep blood (PML microbiological) for gram positive strain. All bacteria strains were dosed by spectrophotometry at 660 nm where 1 D.O=2×10^8 bacteria/mL. All bacteria were plated in their respective broth at a concentration of 450 000 bacteria/mL.
Compounds I, II and III were diluted in methanol and the above-noted antibiotic agents were diluted in water. The solvent concentration was 0.25%, which was not toxic for the bacteria. Compounds I, II and III and the above-noted antibiotic agents were tested at 8 different concentrations.
Each well contained: 100 μL of bacteria, 50 μL of the compounds tested (compound I, II, III or the above-noted antibiotic agent) and 50 μL of a 4% resazurin (Sigma) solution. The plates were incubated at 37° C. for 5 h. The fluorescence was read using a Fluoroskan Ascent™ FL (thermo) using an excitation wavelength of 530 nm and an emission wavelength of 590 nm.
Two different strains of Staphylococcus were tested, namely the S. epidermidis and the S. aureus strains.

## O=C(CCc1ccccc1)c1c(O)cc(O)c(C/C=C/c2ccc(O)cc2)c1O [Compound III]
[1]; Strep. pneumoniae 14070
  Minimum Inhibitory Concentration (MIC): (>200) μM
  IC50: 124 ± 5 µM
[1]; Strep. pneumoniae 14112
  Minimum Inhibitory Concentration (MIC): (190) μM
  IC50: 89 ± 5 µM
[1]; Strep. pneumoniae 14138
  Minimum Inhibitory Concentration (MIC): (>200) μM
  IC50: > 200 µM
[1]; Strep. pneumoniae 14144
  Minimum Inhibitory Concentration (MIC): (>200) μM
  IC50: > 200 µM
[1]; Strep. pneumoniae 14148
  Minimum Inhibitory Concentration (MIC): (200) μM
  IC50: 93 ± 7 µM
[1]; in words
  activity against Streptococcus pneumoniae 14070 strain: active
  activity against Streptococcus pneumoniae strain 14144: not active
[2]; Strep. pyogenes 14149
  Minimum Inhibitory Concentration (MIC): (>200) μM
  IC50: > 200 µM
[2]; Strep. pyogenes 14152
  Minimum Inhibitory Concentration (MIC): (>200) μM
  IC50: 174 ± 10 µM
[2]; in words
  activity against Streptococcus pyogenes strain 14152: active
[3]; Strep. agalactiae 14150
  Minimum Inhibitory Concentration (MIC): (>200) μM
  IC50: 154 ± 2 µM
[3]; Strep. agalactiae 14151
  Minimum Inhibitory Concentration (MIC): (>200) μM
  IC50: > 200 µM
[3]; Strep. agalactiae 14153
  Minimum Inhibitory Concentration (MIC): (>200) μM
  IC50: > 200 µM
[3]; in words
  activity against Streptococcus agalactiae strain 14150: active
[4]; MRSA 1
  Minimum Inhibitory Concentration (MIC): (5.5) μM
  IC50: 2400 ± 200 nM
[4]; MRSA 2
  Minimum Inhibitory Concentration (MIC): (4.89) μM
  IC50: 2300 ± 200 nM
[4]; MRSA 3
  Minimum Inhibitory Concentration (MIC): (5.11) μM
  IC50: 2200 ± 200 nM
[4]; MRSA 4
  Minimum Inhibitory Concentration (MIC): (4.53) μM
  IC50: 2200 ± 200 nM
[4]; MRSA 5
  Minimum Inhibitory Concentration (MIC): (4.27) μM
  IC50: 2300 ± 200 nM
[4]; MRSA 6
  Minimum Inhibitory Concentration (MIC): (5.03) μM
  IC50: 2200 ± 200 nM
[4]; MRSA 7
  Minimum Inhibitory Concentration (MIC): (4.93) μM
  IC50: 2400 ± 200 nM
[4]; MRSA 8
  Minimum Inhibitory Concentration (MIC): (4.98) μM
  IC50: 2200 ± 200 nM
[4]; MRSA 9
  Minimum Inhibitory Concentration (MIC): (5.77) μM
  IC50: 2300 ± 200 nM
[4]; MRSA 10
  Minimum Inhibitory Concentration (MIC): (5.31) μM
  IC50: 2800 ± 200 nM
[5]
  Minimum Inhibitory Concentration (MIC): (200) μM
[5]; read-out: IC50
  IC50: 9 ± 2 µM
[6]
  WS-1 (toxicity on normal cells, fibroblast): 20 ± 3
[7]; S. aureus WT (ATCC 25923)
  Minimum Inhibitory Concentration (MIC): (5.81) μM
[7]; S. aureus WT (ATCC 25923), read-out: IC50
  IC50: 2200 ± 600 nM
[7]; Table 5, same values as IC50 of Table 2, read-out: S. aureus WT ATCC 25923 (toxicity on bacteria)
  IC50: 2200 ± 600 nM
[8]; Ent. Faecalis 14078
  Minimum Inhibitory Concentration (MIC): (>200) μM
  IC50: > 200 µM
[8]; Ent. Faecalis 14115
  Minimum Inhibitory Concentration (MIC): (>200) μM
  IC50: > 200 µM
[8]; in words
  activity against Enterococcus faecalis: No activity
[9]; S. epidermidis 14069
  IC50: 4.5 ± 0.3 µM
  Minimum Inhibitory Concentration (MIC): (10.9) μM
[9]; S. epidermidis 14085
  IC50: 3.6 ± 0.4 µM
  Minimum Inhibitory Concentration (MIC): (11.6) μM
[9]; S. epidermidis 14093
  IC50: 6.3 ± 0.6 µM
  Minimum Inhibitory Concentration (MIC): (8.43) μM
[9]; S. epidermidis 14134
  IC50: 3 ± 0.6 µM
  Minimum Inhibitory Concentration (MIC): (14.7) μM
[9]; S. epidermidis 14143
  IC50: 4.41 ± 0.04 µM
  Minimum Inhibitory Concentration (MIC): (9) μM
[9]; in words
  activity on S. epidermidis compared with ciprofloxacin: more active than ciprofloxacin
